Measured values: PMC6271340, “Synthesis and Anti-Tumor Activity of Novel Aminomethylated Derivatives of Isoliquiritigenin” (Molecules, 2014)
“And” between values parts separate entries of the source, which are not always exact repeats. Identical values can stand only once.

Tests used:
[1] = test system: PC-3, human prostate cancer cells; assay: MTT cytotoxicity assay, PC-3; format: cell-based; details: 72 h
Description: (§1) We examined the cytotoxicity of ISL nitrogenous derivatives against three cancer cell lines (PC-3, MCF-7 and HO-8910) and normal human THP-1 cells using MTT growth inhibition assays. ISL was used as a positive control. […] The IC50 values were all above 100 µM.
(§2) Cytotoxicity was evaluated against four human cell lines (MCF-7 breast cancer, PC-3 prostatic cancer, HO-8910 ovarian cancer, and THP1 normal cells). Briefly, MCF-7, PC-3 and HO-8910 cells were separately plated in 96-well culture plates (1 × 10^5 cells/well). After 24 h incubation, cells were treated with compounds 7–16 (0, 3.13, 6.25, 12.5, 25, 50 and 100 µM) for 72 h. MTT solution (5 mg/mL) was then added to each well. After 4 h incubation, the formazan precipitate was dissolved in […] dimethyl sulfoxide (DMSO), and then the absorbance was measured in an ELISA reader (Thermo Molecular Devices Co., Union City, CA, USA) at 570 nm. The cell viability ratio was calculated by the following formula: Inhibitory ratio (%) = (1 − ODtreated/ODcontrol) × 100%.

[2] = test system: HO-4980, human ovarian cancer cells; assay: MTT cytotoxicity assay, HO-4980 (HO-8910); format: cell-based; details: 72 h
Description: as §1, §2

[3] = MTT cytotoxicity assay, THP-1 normal cells; format: cell-based; details: human, THP-1 cells (called normal cells)
Description: as §1, §2

[4] = test system: MCF-7, human breast cancer cells; assay: MTT cytotoxicity assay, MCF-7; format: cell-based; details: MCF7, 72 h
Description: as §1, §2

S180 sarcoma cells = assay: Anti-tumor activity in S180 tumor-bearing mice; format: in vivo; details: S180 tumor-bearing BALB/c mice
Description: (§3) Female BALB/c mice (6–8 weeks old, 25 ± 2 g) were obtained from the Third Affiliated Hospital of Harbin Medical University. S180 sarcoma cells were purchased from the Experimental Animal Center of Peking University Health Science Center (Heilongjiang, China). The animals were housed in polypropylene cages and maintained under controlled conditions of 12 h light/12 h dark photoperiod and 55 ± 5% relative humidity at room temperature (28 ± 2 °C). After fed in our facility for 1 week, 40 mice were induced S180 tumor cells according to Wu et al. with some modification. All mice were subcutaneously implanted with 1 × 10^6 cells/mice on the right flank. After inoculation for 24 h, all animals were randomly divided into one untreated control group, one treated positive control group and two treated experimental groups (each group contained 10 mice).
(§4) Group I (untreated control) received orally the same volume of 0.9% normal saline once per day as the treated groups. Group II (treated positive control) received orally ISL at a dosage of 40 mg/kg body weight once per day. Group III (low dose of ISL derivative 15 treatment) received ISL derivative 15 orally (dissolved in 0.2 mL normal saline) at a dosage of 40 mg/kg body weight once per day. Group IV (high-dose of ISL derivative 15 treatment) received ISL derivative 15 orally (dissolved in 0.2 mL normal saline) at a dosage of 80 mg/kg body weight once per day.

[5] = Body-weight change as toxicity parameter in S180 tumor-bearing mice; format: in vivo; details: for BWC (%) body-weight change: S180 tumor-bearing BALB/c mice; for Changes in body weight as parameter for toxicity (in words): ISL derivative 15 at 80 or 40 mg/kg, ISL at 40 mg/kg, S180 tumor-bearing mice
Description: For comparison, ISL (40 mg/kg) was analyzed as positive control. Changes in body weight were used as parameter for toxicity.
as §3, §4

Row | Compound | IC50 [1] [µM] | IC50 [2] [µM] | IC50 [3] [µM] | IC50 [4] [µM] | melting point | TIR (%) tumor inhibitory rate (S180 sarcoma cells; 40 mg/kg orally once per day) [%] | TW (g) x ± SD (tumor weight) (S180 sarcoma cells; 40 mg/kg orally once per day) [g] | TIR (%) tumor inhibitory rate (S180 sarcoma cells; 80 mg/kg orally once per day) [%] | TW (g) x ± SD (tumor weight) (S180 sarcoma cells; 80 mg/kg orally once per day) [g] | BWC (%) body-weight change ([5]; 40 mg/kg orally once per day) | BWC (%) body-weight change ([5]; 80 mg/kg orally once per day) | Changes in body weight as parameter for toxicity (in words) [5]
1 | CN(C)Cc1c(O)ccc(C(=O)/C=C/c2ccc(O)cc2)c1O [Compound 7, (E)-1-(3-(dimethylaminomethyl)-2,4-dihydroxyphenyl)-3-(4-hydroxyphenyl)prop-2-en-1-one] | > 100 | > 100 | > 100 | > 100 | > 176 °C |  |  |  |  |  |  | 
2 | O=C(/C=C/c1ccc(O)cc1)c1ccc(O)c(CN2CCOCC2)c1O [Compound 8, (E)-1-(2,4-dihydroxy-3-(morpholinomethyl)phenyl)-3-(4-hydroxyphenyl)prop-2-en-1-one] | 48.6 | 96.4 | > 100 | > 100 | > 180 °C |  |  |  |  |  |  | 
3 | O=C(/C=C/c1ccc(O)cc1)c1ccc(O)c(CNC2CCCCC2)c1O [Compound 9, (E)-1-(3-(cyclohexylaminomethyl)-2,4-dihydroxyphenyl)-3-(4-hydroxyphenyl)prop-2-en-1-one] | 28.3 | > 100 | > 100 | 73.6 | > 168 °C |  |  |  |  |  |  | 
4 | CC(C)N(Cc1c(O)ccc(C(=O)/C=C/c2ccc(O)cc2)c1O)C(C)C [Compound 10] | > 100 | 98.1 | > 100 | 84.6 | > 180 °C |  |  |  |  |  |  | 
5 | CCN(CC)Cc1c(O)ccc(C(=O)/C=C/c2ccc(O)cc2)c1O [Compound 11, (E)-1-(3-((diethylamino)methyl)-2,4-dihydroxyphenyl)-3-(4-hydroxyphenyl)prop-2-en-1-one] | 66 | 97.3 | > 100 | > 100 | > 176 °C |  |  |  |  |  |  | 
6 | CCC(C)NCc1c(O)ccc(C(=O)/C=C/c2ccc(O)cc2)c1O (stereo not shown) [Compound 12, (E)-1-(3-((sec-butylamino)methyl)-2,4-dihydroxyphenyl)-3-(4-hydroxyphenyl)prop-2-en-1-one] | 57.1 | > 100 | > 100 | 84.8 | > 175 °C |  |  |  |  |  |  | 
7 | CC(C)(C)NCc1c(O)ccc(C(=O)/C=C/c2ccc(O)cc2)c1O [Compound 13, (E)-1-(3-((tert-butylamino)methyl)-2,4-dihydroxyphenyl)-3-(4-hydroxyphenyl)prop-2-en-1-one] | > 100 | > 100 | > 100 | > 100 | > 170 °C |  |  |  |  |  |  | 
8 | O=C(C=Cc1ccc(O)cc1)c1ccc(O)c(CNCCO)c1O [Compound 14, 1-(2,4-dihydroxy-3-((2-hydroxyethylamino)methyl)phenyl)-3-(4-hydroxyphenyl)propen-1-one] | 87.7 | 89 | > 100 | 66 | > 180 °C |  |  |  |  |  |  | 
9 | O=C(/C=C/c1ccc(O)cc1)c1ccc(O)c(CN(CCO)CCO)c1O [Compound 15, (E)-1-(3-((bis(2-hydroxyethyl)amino)methyl)-2,4-dihydroxyphenyl)-3-(4-hydroxyphenyl)prop-2-en-1-one] | 35.1 | 37.9 | > 100 | 42.9 |  | 39.72 | 0.74 ± 0.618 | 71.68 | 0.35 ± 0.442 | +12.8% | +7.8% | Loss of body weight was not found
10 | O=C(/C=C/c1ccc(O)cc1)c1ccc(O)c(CN2CCCC2)c1O [Compound 16] | > 100 | 74.9 | > 100 | 81.8 | 116.5 to 117.1 °C and 116.5 to 117.4 °C |  |  |  |  |  |  | 
11 | O=C(/C=C/c1ccc(O)cc1)c1ccc(O)cc1O [ISL, isoliquiritigenin] | 36.9 | 58.4 | > 100 | 44.1 |  | 32.44 | 0.85 ± 0.369 |  |  | −3.0% |  | slight weight loss
